Assay results as given in patent US20150225369A1, “DDR2 INHIBITORS FOR THE TREATMENT OF OSTEOARTHRITIS” (Merck Patent GmbH, priority 2012, published 2015).
Read-outs that look alike come from different tables or passages of the source.

Tests used:
[1] = molecular target: T1, His-tagged human recombinant DDR-2 kinase domain (His-TEV-DDR2 467-855 aa) (Homo sapiens, UniProt Q16832); test: Autophosphorylation assay for biochemical activity testing of DDR2 (HTRF)
T1 construct: His-TEV-DDR2 467-855 aa
T1 sequence (Q16832 467-855): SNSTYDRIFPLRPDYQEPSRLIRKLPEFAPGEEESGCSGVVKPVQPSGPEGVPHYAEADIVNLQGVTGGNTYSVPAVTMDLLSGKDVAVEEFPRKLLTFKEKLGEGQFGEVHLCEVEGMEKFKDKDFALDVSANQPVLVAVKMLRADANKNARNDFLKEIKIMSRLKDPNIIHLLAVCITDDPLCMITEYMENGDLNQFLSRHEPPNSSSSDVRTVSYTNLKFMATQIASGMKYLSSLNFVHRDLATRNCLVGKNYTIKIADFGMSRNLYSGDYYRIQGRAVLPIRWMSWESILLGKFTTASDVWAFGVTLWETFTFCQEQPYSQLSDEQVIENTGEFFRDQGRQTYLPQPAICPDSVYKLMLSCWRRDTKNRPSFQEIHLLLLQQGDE
Method in brief: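 Phospho-tyrosine was detected by HTRF between XL665 anti-6His and cryptate anti-phosphotyrosine PT66 antibodies, using the emission ratio. Inhibition was referenced to the inhibitor-free reaction.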

[2] = molecular target: T2, HEK293 transfected with human DDR2 (Homo sapiens, UniProt Q16832); test: Phospho-DDR2 cellular assay (collagen II induced DDR2 phosphorylation, ELISA); assay type: cell-based; conditions: read-out: IC50 [p-DDR2]
T2 construct: expressed in transfected cells; host or cells: HEK293 (PLT460F_(DDR2)-P7-1)
T2 sequence (Q16832 22-855): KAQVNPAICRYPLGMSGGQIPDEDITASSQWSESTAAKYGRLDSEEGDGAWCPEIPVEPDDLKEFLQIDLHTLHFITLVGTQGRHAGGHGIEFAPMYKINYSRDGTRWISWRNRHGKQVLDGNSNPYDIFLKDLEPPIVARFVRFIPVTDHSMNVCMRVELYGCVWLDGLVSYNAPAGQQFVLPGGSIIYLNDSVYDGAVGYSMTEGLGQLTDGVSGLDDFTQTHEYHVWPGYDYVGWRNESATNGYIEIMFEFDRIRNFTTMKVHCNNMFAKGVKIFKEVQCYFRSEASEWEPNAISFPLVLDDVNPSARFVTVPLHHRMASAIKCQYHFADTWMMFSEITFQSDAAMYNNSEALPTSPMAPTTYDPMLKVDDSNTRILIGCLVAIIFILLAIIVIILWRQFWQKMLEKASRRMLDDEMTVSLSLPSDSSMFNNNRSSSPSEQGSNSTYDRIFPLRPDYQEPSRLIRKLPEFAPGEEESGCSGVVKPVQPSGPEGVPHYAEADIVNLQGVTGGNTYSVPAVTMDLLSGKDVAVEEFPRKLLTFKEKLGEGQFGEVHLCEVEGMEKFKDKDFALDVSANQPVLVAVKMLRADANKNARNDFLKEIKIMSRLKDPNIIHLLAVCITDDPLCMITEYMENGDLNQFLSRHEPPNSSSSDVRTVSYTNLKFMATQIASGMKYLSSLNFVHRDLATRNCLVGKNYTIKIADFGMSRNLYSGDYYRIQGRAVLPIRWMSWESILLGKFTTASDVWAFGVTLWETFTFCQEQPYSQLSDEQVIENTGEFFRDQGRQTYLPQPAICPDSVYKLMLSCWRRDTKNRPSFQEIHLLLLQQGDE
Method in brief: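 Cells seeded 48 h in 10% FBS, serum-starved 8 h, then given compound (5% DMSO) with 50 μg/ml chicken collagen II for 16 h at 37 °C. Lysates captured on anti-DDR2 antibody plates; phospho-DDR2 detected with HRP anti-phosphotyrosine antibody by chemiluminescence.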

[3] = biochemical DDR2 autophosphorylation
[4] = 4 nM DDR2 kinase domain, 150 μM ATP, 150 min at 22° C.
[5] = HEK293 transfected with human DDR2, 50 μg/ml chicken collagen II, 16 h

| IC50 [1, 3] [µM] | IC50 ([2]; cellular phospho-DDR2) [µM] | IC50 [1, 4] [µM] | IC50 [2, 5] [µM] | Compound |
| --- | --- | --- | --- | --- |
| 0.049 | 0.053 | – | – | CNC(=O)c1cc(Oc2ccc(CNC(=O)Nc3cc(C)c(Cl)cc3OCCN)cc2C)ccn1 [compound 144, 4-(4-{3-[2-(2-Amino-ethoxy)-4-chloro-5-methyl-phenyl]-ureidomethyl}-2-methyl-phenoxy)-pyridine-2-carboxylic acid methylamide] |
| 0.026 | 0.018 | – | – | CNC(=O)c1cc(Oc2ccc(CNC(=O)Nc3cc(C)c(Cl)cc3OCCN(C)C)cc2C)ccn1 [compound 139, 4-(4-{3-[4-Chloro-2-(2-dimethylamino-ethoxy)-5-methyl-phenyl]-ureidomethyl}-2-methyl-phenoxy)-pyridine-2-carboxylic acid methylamide] |
| – | – | 0.41 | 0.087 | CNC(=O)c1cc(Oc2ccc(CNC(=O)Nc3cc(C)cnc3Cl)cc2C)ccn1 [compound 25] |
| 0.14 | 0.055 | – | – | CNC(=O)c1cc(Oc2ccc(CNC(=O)Nc3cc(C)c(Cl)cc3OCCCN(C)C)cc2)ccn1 [compound 153, 4-(4-{3-[4-Chloro-2-(3-dimethylamino-propoxy)-5-methyl-phenyl]-ureidomethyl}-phenoxy)-pyridine-2-carboxylic acid methylamide] |
| 0.36 | 0.095 | – | – | CNC(=O)c1cc(Oc2ccc(CNC(=O)Nc3cc(C(F)(F)F)ccc3OCC(C)(C)N)cc2)ccn1 [compound 160, 4-(4-{3-[2-(2-Amino-2-methyl-propoxy)-5-trifluoromethyl-phenyl]-ureidomethyl}-phenoxy)-pyridine-2-carboxylic acid methylamide] |
| 0.077 | 0.066 | – | – | CNC(=O)c1cc(Oc2ccc(CNC(=O)Nc3cc(C)c(Cl)cc3OCCN3CCNCC3)cc2C)ccn1 [compound 143, 4-(4-{3-[4-Chloro-5-methyl-2-(2-piperazin-1-yl-ethoxy)-phenyl]-ureidomethyl}-2-methyl-phenoxy)-pyridine-2-carboxylic acid methylamide] |
| 0.043 | 0.025 | – | – | CNCCOc1cc(Cl)c(C)cc1NC(=O)NCc1ccc(Oc2ccnc(C(=O)NC)c2)c(C)c1 [compound 141, 4-(4-{3-[4-Chloro-5-methyl-2-(2-methylamino-ethoxy)-phenyl]-ureidomethyl}-2-methyl-phenoxy)-pyridine-2-carboxylic acid methylamide] |
| 0.091 | 0.063 | – | – | CNC(=O)c1cc(Oc2ccc(CNC(=O)Nc3cc(C(F)(F)F)c(Cl)cc3OCCN3CCNCC3)cc2)ccn1 [compound 128, 4-(4-{3-[4-Chloro-2-(2-piperazin-1-yl-ethoxy)-5-trifluoromethyl-phenyl]-ureidomethyl}-phenoxy)-pyridine-2-carboxylic acid methylamide] |
| 0.46 | 0.175 | – | – | CNC(=O)c1cc(Oc2ccc(CNC(=O)Nc3cc(Cl)c(C)cc3OCC(C)(C)N)cc2)ccn1 [compound 185, 4-(4-{3-[2-(2-Amino-2-methyl-propoxy)-5-chloro-4-methyl-phenyl]-ureidomethyl}-phenoxy)-pyridine-2-carboxylic acid methylamide] |
| – | – | 0.13 | 0.058 | CNC(=O)c1cc(Oc2ccc(CNC(=O)Nc3cc(C(F)(F)F)cnc3Cl)cc2)ccn1 [compound 24] |
| 0.043 | 0.016 | – | – | CNC(=O)c1cc(Oc2ccc(CNC(=O)Nc3cc(C(F)(F)F)ccc3OCC3CCCN3)cc2)ccn1 (stereo not shown) [compound 156, 4-(4-{3-[2-(Pyrrolidin-2-ylmethoxy)-5-trifluoromethyl-phenyl]-ureidomethyl}-phenoxy)-pyridine-2-carboxylic acid methylamide] |
| 0.14 | 0.031 | – | – | CNC(=O)c1cc(Oc2ccc(CNC(=O)Nc3cc(C(F)(F)F)ccc3OCCNC(C)C)cc2)ccn1 [compound 172, 4-(4-{3-[2-(2-Isopropylamino-ethoxy)-5-trifluoromethyl-phenyl]-ureidomethyl}-phenoxy)-pyridine-2-carboxylic acid methylamide] |
| 0.4 | 0.205 | – | – | CNC(=O)c1cc(Oc2ccc(CNC(=O)Nc3cc(C)ccn3)cc2C)ccn1 [compound 213, 4-{2-Methyl-4-[3-(4-methyl-pyridin-2-yl)-ureidomethyl]-phenoxy}-pyridine-2-carboxylic acid methylamide] |
| 0.036 | 0.033 | – | – | CNC(=O)c1cc(Oc2ccc(CNC(=O)Nc3cc(C)c(Cl)cc3OC3CCNCC3)cc2C)ccn1 [compound 142, 4-(4-{3-[4-Chloro-5-methyl-2-(piperidin-4-yloxy)-phenyl]-ureidomethyl}-2-methyl-phenoxy)-pyridine-2-carboxylic acid methylamide] |

Continued, molecule first:

| Compound | IC50 [1, 3] [µM] | IC50 ([2]; cellular phospho-DDR2) [µM] | IC50 [1, 4] [µM] | IC50 [2, 5] [µM] |
| --- | --- | --- | --- | --- |
| CNC(=O)c1cc(Oc2ccc(CNC(=O)Nc3cc(Cl)c(C)cc3OCCN3CCNCC3)cc2)ccn1 [compound 179, 4-(4-{3-[5-Chloro-4-methyl-2-(2-piperazin-1-yl-ethoxy)-phenyl]-ureidomethyl}-phenoxy)-pyridine-2-carboxylic acid methylamide] | 0.16 | 0.038 | – | – |
| CNCCOc1ccc(C)cc1NC(=O)NCc1ccc(Oc2ccnc(C(=O)NC)c2)cc1 [compound 170, 4-(4-{3-[5-Methyl-2-(2-methylamino-ethoxy)-phenyl]-ureidomethyl}-phenoxy)-pyridine-2-carboxylic acid methylamide] | 0.31 | 0.195 | – | – |
| CNC(=O)c1cc(Oc2ccc(CNC(=O)Nc3cc(C(F)(F)F)c(Cl)cc3OCCCN)cc2)ccn1 [compound 191, 4-(4-{3-[2-(3-Amino-propoxy)-4-chloro-5-trifluoromethyl-phenyl]-ureidomethyl}-phenoxy)-pyridine-2-carboxylic acid methylamide] | 0.59 | 0.106 | – | – |
| CNCCOc1cc(Cl)c(C(F)(F)F)cc1NC(=O)NCc1ccc(Oc2ccnc(C(=O)NC)c2)cc1 [compound 127, 4-(4-{3-[4-Chloro-2-(2-methylamino-ethoxy)-5-trifluoromethyl-phenyl]-ureidomethyl}-phenoxy)-pyridine-2-carboxylic acid methylamide] | 0.047 | 0.034 | – | – |
| CNCCOc1ccc(C)cc1NC(=O)NCc1ccc(Oc2ccnc(C(=O)NC)c2)c(C)c1 [compound 215, 4-(2-Methyl-4-{3-[5-methyl-2-(2-methylamino-ethoxy)-phenyl]-ureidomethyl}-phenoxy)-pyridine-2-carboxylic acid methylamide] | 0.069 | 0.04 | – | – |
| CNC(=O)c1cc(Oc2ccc(CNC(=O)Nc3cc(Cl)ccc3OC)cc2F)ccn1 [compound 232, 4-{4-[3-(5-Chloro-2-methoxy-phenyl)-ureidomethyl]-2-fluoro-phenoxy}-pyridine-2-carboxylic acid methylamide] | 0.052 | 0.019 | – | – |
| CNCCOc1ccccc1NC(=O)NCc1ccc(Oc2ccnc(C(=O)NC)c2)cc1 [compound 169, 4-(4-{3-[2-(2-Methylamino-ethoxy)-phenyl]-ureidomethyl}-phenoxy)-pyridine-2-carboxylic acid methylamide] | 2.8 | 1.9 | – | – |
| CNCCOc1cc(Cl)c(C)cc1NC(=O)NCc1ccc(Oc2ccnc(C(=O)NC)c2)cc1 [compound 125, 4-(4-{3-[4-Chloro-5-methyl-2-(2-methylamino-ethoxy)-phenyl]-ureidomethyl}-phenoxy)-pyridine-2-carboxylic acid methylamide] | 0.187 | 0.052 | – | – |
| CNC(=O)c1cc(Oc2ccc(CNC(=O)Nc3cc(OC)c(Cl)cc3OC)cc2)ccn1 [compound 83, 4-{4-[3-(4-Chloro-2,5-dimethoxy-phenyl)-ureidomethyl]-phenoxy}-pyridine-2-carboxylic acid methylamide] | 0.76 | 0.14 | – | – |
